Consider 13 molecules from patent publication US8198307B2, “Imidazole derivatives having aryl piperidine substituent, method for preparation thereof and pharmaceutical compositions containing same” (Korea Research Institute of Chemical Technology, priority 2007, dated 2012).

The target of this experiment is T1, MCH R1 (melanine-concentrating hormone receptor-1) (Homo sapiens, UniProt Q99705).
T1 construct: purchased Euroscreen, Gosselies, Belgium
The experiment in a line: Inhibitory effects on MCH R1 binding (Eu-MCH time-resolved fluorescence binding assay). On the procedure: First, MCH R1 (melanine-concentrating hormone receptor-1; Euroscreen, Gosselies, Belgium), 1 μM Europium-labeled melanine-concentrating hormone (Eu-MCH, PerkinElmer, Turku, Finland) and 1 mM melanine-concentrating hormone (MCH, #070-47, Phoenix, Belmont Calif., USA) were kept at 4° C. for ready use. 1 μM Eu-MCH and 1 mM MCH were diluted with an experimental solution (25 mM HEPES pH 7.4, 5 mM MgCl2, 1 mM CaCl2 and 0.5% (w/w) BSA) to 8 nM (final reaction concentration: 2 nM) and 2 μM (final reaction concentration: 0.5 μM), respectively. The compounds prepared in the Examples (“Test compounds”) were dissolved in the experimental solution in concentration of 4 nM to 40 μM (final reaction concentration: 1 nM to 10 μM). MCH R1 (200 assays/vial) was homogeneously dispersed in the experimental solution.
Then, 100 μl/well of the following reaction mixture was added to the wells of a microplate (Multiwell 96 well filter plates PN5020, Pall Co., Ann Arbor, Mich., USA) equipped with a filter paper, with an 8-channel pipette (multi 8-channel, Eppendorf, Hamburg, Germany). Specifically, to the wells of a non-specific binding control group, 25 μl of Eu-MCH, 50 μl of MCH R1 and 25 μl of MCH were added. Further, 25 μl of the experimental solution supplemented with 10% (w/w) of DMSO, 25 μl of Eu-MCH and 50 μl of MCH R1 were added to the wells of a total binding control group, while 25 μl of the test compounds, 25 μl Eu-MCH and 50 μl of MCH R1 were added to the wells of an experimental group. Subsequently, the microplate was shaken gently for 15 seconds and kept at room temperature for 90 minutes to allow the reaction to take place. Then, the plate was washed with a microplate washer (EMBLA, Molecular Devices) by washing three times with 300 μl of a washing solution (25 mM HEPES pH 7.4, 5 mM MgCl2, 1 mM CaCl2) to remove the residual unreacted Eu-MCH. Moisture was removed from the bottom of the wells and 150 μl of dissociation solution (DELFIA Enhancement solution, PerkinElmer, Turku, Finland) was added to each well, followed by keeping the plate at room temperature for 2 to 4 hours. Subsequently, time-resolved fluorescence (TRF) values were measured with a multilabel counter (Victor2, PerkinElmer, Turku, Finland) (emission wave length: 615 nm, excitation wave length: 340 nm). The inhibition rate based on the time-resolved fluorescence data was calculated using the following Equation (I). Inhibition rate of time-resolved fluorescence (%)=[(Average TRF value of the total binding group−Time-resolved fluorescence value of the test compound)/(Average TRF value of the total binding group−Average TRF value of the non-specific binding group)]×100 (I)

The mark [1] stands for this setting: concentration inhibiting the binding of MCH (Eu-MCH, 2 nM) to MCH R1 by 50% in vitro, TRF readout, test range 1 nM to 10 μM, read-out: IC50.

SMILES strings stand for the structures. Read-outs that look alike come from different tables or passages of the source.

T1 sequence (Q99705 whole entry, species assumed): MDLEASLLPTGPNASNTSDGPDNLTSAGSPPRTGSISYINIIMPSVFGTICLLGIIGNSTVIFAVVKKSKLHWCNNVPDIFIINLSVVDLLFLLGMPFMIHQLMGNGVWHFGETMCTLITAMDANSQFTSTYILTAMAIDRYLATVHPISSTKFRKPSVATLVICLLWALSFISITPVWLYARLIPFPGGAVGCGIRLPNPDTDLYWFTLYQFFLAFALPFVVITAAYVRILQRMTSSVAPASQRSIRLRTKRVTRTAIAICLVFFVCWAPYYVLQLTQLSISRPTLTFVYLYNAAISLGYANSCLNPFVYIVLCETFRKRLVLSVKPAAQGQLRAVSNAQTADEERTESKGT

On to `CC(=O)Nc1cccc(C2CCN(CCCn3c(-c4ccc(F)cc4)nc4ccc(Cl)cc43)CC2)c1` [Example 30, 2-(4-fluorophenyl)-1-{3-[4-(3-acetylaminophenyl)piperidin-1-yl]propyl}-6-chloro-1H-benzimidazole], for which the IC50 under setting [1] was found to be 13 nM.

For `CC(=O)Nc1cccc(C2CCN(CCCn3c(-c4ccc(Cl)cc4)nc4ccc(F)cc43)CC2)c1` [Example 31, 2-(4-chlorophenyl)-1-{3-[4-(3-acetylaminophenyl)piperidin-1-yl]propyl}-6-fluoro-1H-benzimidazole], the IC50 under setting [1] was found to be 11 nM. Same read-out and setting: with `CC(=O)Nc1cccc(C2CCN(CCCn3c(-c4ccccc4)nc4ccc([N+](=O)[O-])cc43)CC2)c1` [Example 32, 2-phenyl-1-{3-[4-(3-acetylaminophenyl)piperidin-1-yl]propyl}-6-nitro-1H-benzimidazole] the figure was 10 nM; with `CC(=O)Nc1cccc(C2CCN(CCCn3c(-c4ccccc4F)nc4ccc(Cl)cc43)CC2)c1` [Example 33, 2-(2-fluorophenyl)-1-{3-[4-(3-acetylaminophenyl)piperidin-1-yl]propyl}-6-chloro-1H-benzimidazole], 148 nM.

For `CC(=O)Nc1cccc(C2CCN(CCCn3c(-c4cccc(F)c4)nc4ccc(Cl)cc43)CC2)c1` [Example 34, 2-(3-fluorophenyl)-1-{3-[4-(3-acetylaminophenyl)piperidin-1-yl]propyl}-6-chloro-1H-benzimidazole], the 50% inhibitory concentration (IC50) under setting [1] worked out at 8 nM. As to `CC(=O)Nc1cccc(C2CCN(CCCn3c(-c4cccc(Cl)c4)nc4ccc(Cl)cc43)CC2)c1` [Example 35, 2-(3-chlorophenyl)-1-{3-[4-(3-acetylaminophenyl)piperidin-1-yl]propyl}-6-chloro-1H-benzimidazole], the half-maximal inhibitory concentration (IC50) under setting [1] was 7 nM. For the molecule `CC(=O)Nc1cccc(C2CCN(CCCn3c(-c4ccc(Cl)cc4)nc4ccc(Br)cc43)CC2)c1` [Example 36, 2-(4-chlorophenyl)-1-{3-[4-(3-acetylaminophenyl)piperidin-1-yl]propyl}-6-bromo-1H-benzimidazole], the IC50 under setting [1] is 17 nM. Turning to `CC(=O)Nc1cccc(C2CCN(CCCn3c(-c4ccccc4Cl)nc4cc(C)c(C)cc43)CC2)c1` [Example 37, 2-(2-chlorophenyl)-1-{3-[4-(3-acetylaminophenyl)piperidin-1-yl]propyl}-5,6-dimethyl-1H-benzimidazole], under setting [1], the IC50 worked out at 39 nM. As for `CC(=O)Nc1cccc(C2CCN(CCCn3c(-c4cccc(Cl)c4)nc4cc(C)c(C)cc43)CC2)c1` [Example 38, 2-(3-chlorophenyl)-1-{3-[4-(3-acetylaminophenyl)piperidin-1-yl]propyl}-5,6-dimethyl-1H-benzimidazole], the half-inhibitory concentration (IC50) under setting [1] is 3 nM. As to `CC(=O)Nc1cccc(C2CCN(CCCn3c(-c4ccc(Cl)cc4)nc4c(C)c(C)ccc43)CC2)c1` [Example 39, 2-(4-chlorophenyl)-1-{3-[4-(3-acetylaminophenyl)piperidin-1-yl]propyl}-4,5-dimethyl-1H-benzimidazole], the half-inhibitory concentration (IC50) under setting [1] turned out to be 7 nM. Still for that read-out and setting: with `CC(=O)Nc1cccc(C2CCN(CCCn3c(-c4ccccc4Cl)nc4ccc([N+](=O)[O-])cc43)CC2)c1` [Example 40, 2-(2-chlorophenyl)-1-{3-[4-(3-acetylaminophenyl)piperidin-1-yl]propyl}-6-nitro-1H-benzimidazole] the figure was 82 nM; with `CC(=O)Nc1cccc(C2CCN(CCCn3c(-c4cccc(Cl)c4)nc4ccc([N+](=O)[O-])cc43)CC2)c1` [Example 41, 2-(3-chlorophenyl)-1-{3-[4-(3-acetylaminophenyl)piperidin-1-yl]propyl}-6-nitro-1H-benzimidazole], 635 nM. In turn, `CC(=O)Nc1cccc(C2CCN(CCCn3c(-c4ccc(Cl)cc4)nc4ccc([N+](=O)[O-])cc43)CC2)c1` [Example 42, 2-(4-chlorophenyl)-1-{3-[4-(3-acetylaminophenyl)piperidin-1-yl]propyl}-6-nitro-1H-benzimidazole] came in with an IC50 of 111 nM.

As usually defined, the IC50 is the point on the concentration scale where inhibition reaches its midpoint.
